Assay results reported in patent US12280132B2, “Skin care composition” (The Procter & Gamble Company, priority 2021, dated 2025).

Assays:
[1] = HCA Crystallization, freeze/thaw temperature cycling; format: physicochemical; details: Table 7; hydrotrope at stated level in 0.5% 4-HCA composition, formula pH 3.8
Source text: This method provides a way to determine HCA solubility in a composition by observing HCA crystals in situ. The method involves cycling the temperature of a test sample between freezing and thawing to imitate environmental conditions experienced by a skin care composition at an accelerated rate. This type of accelerated aging is commonly used in cosmetic product stability testing. HCA crystals can be detected using conventional means such as visual observation and microscopy.
A bulk sample of at least 10 g (e.g., 20 g-60 g) of the composition to be tested is placed in a suitable container that enables visual observation of the test sample (e.g., transparent plastic or glass jar). The test sample is subjected to 1 month of freeze/thaw temperature cycling to simulate environmental conditions that a skin care product may experience during shipping and storage. This is sometimes referred to as accelerated aging. The temperature cycling involves a 1-week freeze cycle at −7° C., followed by a 1-week thaw cycle at 25° C., and then repeating this freeze/cycle for a total temperature cycling time of 1 month.
Upon completion of the accelerated aging process (i.e., 1 month of temperature cycling), transparent test samples are visually inspected in-situ in the transparent container to determine if HCA crystallization/precipitation occurred. For opaque and translucent samples, the entire test sample is removed from the container and transferred to a suitable transparent substrate (e.g., plastic film or glass plate) and formed into a thin film of no more than 1 mm thickness. The sample is covered with a second transparent substrate to inhibit the loss of volatile ingredients during inspection. A light source (e.g., LED lamp or the like) is used to backlight the sample to aid in visual inspection. HCA crystals will generally appear as a precipitate in the composition visible to the naked eye when observed by someone with 20/20 vision from 45 cm away. Any precipitate identified during visual observation may be further evaluated using a microscope capable of providing fluorescent birefringence observation with cross-polarized light to identify anisotropic crystals. Any anisotropic crystal that has a longest dimension of greater than 0.1 mm is identified as an HCA crystal and the total number of HCA crystals is recorded. A test sample that contains no more than 1 HCA crystal is considered to be “free of HCA crystals” and is recorded as a “pass.” A test sample that contains more than 1 HCA crystal, is recorded as a “fail.”
While it is desirable to formulate HCA containing compositions at lower pH to reduce 4-VP production and yellowing, the solubility of the HCA at low pH may not be sufficient for it to be added at levels needed for an effective skin care active.
The test compositions shown in Table 8 were subjected to 2 freeze/thaw cycles at −7C/25C for 1 week/1 week, totaling one month of temperature cycling.
The test compositions are shown below in Table 9. The test compositions were subjected to 2 freeze/thaw cycles at −7C/25C and 1 week/1 week, followed by a 90-day rest period at 25° C. After completion of the incubation period, the compositions were examined for the presence of HCA crystals, as described above.

[2] = Table 7, hydrotropes; cited from earlier work
[3] = Color method: change in yellowness (Δb*) after accelerated aging; format: physicochemical
Source text: This method can be used to determine the change in color of a product, material, or target portion of skin. A spectrophotometer (e.g., Spectrophotometer CM-3600A, Konica Minolta, Japan, or equivalent) is used to measure spectrometric data for CIE (International Commission on Illumination) specified illuminating and viewing conditions, and compute the associated tristimulus values, XYZ, based on CIE observer and a CIE illuminant standards. The ASTM standard for obtaining spectrometric data for Object-Color Evaluation is ASTM E1164-12(2017)el with the values and procedures for computing CIE tristimulus values from spectrometric data outlined in ASTM […]. The CIELAB color scale, also referred to as L*a*b*, are calculated from the tristimulus values as defined in ASTM […]. The L* denotes the sample's perceptual lightness. […] Portion samples are evaluated using a 10 mm path length in a plastic cell (e.g., CM-A131, Konica Minolta, Japan or equivalent), reflectance measurement, a 25.4 mm aperture opening at the specimen surface, and specular component excluded conditions with a standard white background. […] Synergy factor is calculated by dividing the observed value by the expected value. […]

Compound | Crystallization [1] | pKA [2] | enhancement of effect of the oxygen quenching reducing agent at low pH vs. neutral pH ([3]; 3M40C) [%] | enhancement of effect of the oxygen quenching reducing agent at low pH vs. neutral pH ([3]; 3W50C (printed 3WSOC)) [%]
O=C(O)c1cccc(O)c1O [2,3-Dihydroxybenzoic acid] | Pass (A test sample that contains no more than 1 HCA crystal is considered to be “free of HCA crystals” and is recorded as a “pass.”) | 2.56 | – | –
O=C(O)c1ccc(O)cc1O [2,4-Dihydroxybenzoic Acid] | Pass (A test sample that contains no more than 1 HCA crystal is considered to be “free of HCA crystals” and is recorded as a “pass.”) | – | – | –
O=C(O)c1ccc(O)c(O)c1 [3,4-Dihydroxybenzoic Acid, reference compound] | Fail (A test sample that contains more than 1 HCA crystal, is recorded as a “fail.”) | 4.16 | – | –
COc1cccc(C(=O)O)c1O [3-Methoxysalicylic acid] | Pass (A test sample that contains no more than 1 HCA crystal is considered to be “free of HCA crystals” and is recorded as a “pass.”) | 2.55 | – | –
O=C([O-])C=Cc1ccccc1.[Na+] [Sodium Cinnamate, reference compound] | Fail (A test sample that contains more than 1 HCA crystal, is recorded as a “fail.”) | – | – | –
O=C([O-])c1ccccc1O.[Na+] [Sodium salicylate] | Pass (A test sample that contains no more than 1 HCA crystal is considered to be “free of HCA crystals” and is recorded as a “pass.”) | – | – | –
O=S([O-])S(=O)(=O)[O-].[Na+].[Na+] [sodium metabisulfite] | – | – | 240 | 20
